What was measured:
Assay type in all cases: in vivo
[1] = test system: barnyardgrass (Echinochloa crus-galli); experiment: Test C flooded paddy test; conditions: Flood; for Plant response rating (scale of 0 to 100), Barnyardgrass: 0 is no effect, 100 is complete control
In short: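 Compound was added directly to paddy water held 3 cm above the soil, with plants at the 2-leaf stage. Injury was scored visually versus untreated controls after 13–15 d greenhouse growth, using a 0–100 scale where 100 means complete control.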

[2] = test system: corn (Zea mays); experiment: Test C preemergence; conditions: for Plant response rating, Corn: scale 0 to 100, 0 no effect, 100 complete control
In short: (§1)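 Visual 0 (no effect) to 100 (complete control) ratings versus controls, taken 13–15 d after treatment in the greenhouse; dash means no result. Compounds in a surfactant-containing non-phytotoxic solvent blend were applied preemergence to seeds in loam-sand soil or postemergence to 1- to 4-leaf plants (2–18 cm) in peat-based medium.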

[3] = test system: oilseed rape (Brassica napus); experiment: Test C preemergence; conditions: for Plant response rating, Oilseed Rape: scale 0 to 100, 0 no effect, 100 complete control
In short: as §1

[4] = test system: lambsquarters (Chenopodium album); experiment: Test C preemergence; conditions: for Plant response rating, Lambsquarters: scale 0 to 100, 0 no effect, 100 complete control
In short: as §1

[5] = test system: ryegrass, Italian (Italian ryegrass, Lolium multiflorum); experiment: Test C preemergence; conditions: for Plant response rating, Ryegrass, Italian: scale 0 to 100, 0 no effect, 100 complete control
In short: as §1

[6] = test system: crabgrass, large (large crabgrass, Digitaria sanguinalis); experiment: Test C preemergence; conditions: for Plant response rating, Crabgrass, Large: scale 0 to 100, 0 no effect, 100 complete control
In short: as §1

[7] = test system: ragweed (common ragweed, Ambrosia elatior); experiment: Test C preemergence; conditions: for Plant response rating, Ragweed: scale 0 to 100, 0 no effect, 100 complete control
In short: as §1

[8] = test system: foxtail, giant (giant foxtail, Setaria faberii); experiment: Test C preemergence; conditions: for Plant response rating, Foxtail, Giant: scale 0 to 100, 0 no effect, 100 complete control
In short: as §1

[9] = test system: blackgrass (Alopecurus myosuroides); experiment: Test C preemergence; conditions: for Plant response rating, Blackgrass: scale 0 to 100, 0 no effect, 100 complete control
In short: as §1

[10] = test system: morningglory (Ipomoea coccinea); experiment: Test C preemergence; conditions: for Plant response rating, Morningglory: scale 0 to 100, 0 no effect, 100 complete control
In short: as §1

[11] = test system: soybean (Glycine max); experiment: Test C preemergence; conditions: for Plant response rating, Soybean: scale 0 to 100, 0 no effect, 100 complete control
In short: as §1

[12] = test system: nutsedge, yellow (yellow nutsedge, Cyperus esculentus); experiment: Test C preemergence; conditions: for Plant response rating, Nutsedge, Yellow: scale 0 to 100, 0 no effect, 100 complete control
In short: as §1

[13] = test system: johnsongrass (Sorghum halepense); experiment: Test C preemergence; conditions: for Plant response rating, Johnsongrass: scale 0 to 100, 0 no effect, 100 complete control
In short: as §1

[14] = test system: velvetleaf (Abutilon theophrasti); experiment: Test C preemergence; conditions: for Plant response rating, Velvetleaf: scale 0 to 100, 0 no effect, 100 complete control
In short: as §1

[15] = test system: wheat (winter wheat, Triticum aestivum); experiment: Test C preemergence; conditions: for Plant response rating, Wheat: scale 0 to 100, 0 no effect, 100 complete control
In short: as §1

[16] = test system: barnyardgrass (Echinochloa crus-galli); experiment: Test C preemergence; conditions: for Plant response rating, Barnyardgrass: scale 0 to 100, 0 no effect, 100 complete control
In short: as §1

[17] = test system: Galium (catchweed bedstraw, Galium aparine); experiment: Test C preemergence; conditions: for Plant response rating, Galium: scale 0 to 100, 0 no effect, 100 complete control
In short: as §1

[18] = test system: pigweed (Amaranthus retroflexus); experiment: Test C preemergence; conditions: for Plant response rating, Pigweed: scale 0 to 100, 0 no effect, 100 complete control
In short: as §1

[19] = test system: waterhemp (common waterhemp, Amaranthus rudis); experiment: Test C preemergence; conditions: for Plant response rating, Waterhemp: scale 0 to 100, 0 no effect, 100 complete control
In short: as §1

[20] = 31 g ai/ha, 0 is no effect, 100 is complete control

CN1CC(c2cc(F)cc(F)c2)C(C(=O)Nc2cccc(F)c2F)C1=O (stereo not drawn) [Compound 644]
100: Plant response rating, Crabgrass, Large ([6]; 250 g ai/ha)
50: Plant response rating, Corn ([2]; 62 g ai/ha) | Plant response rating, Oilseed Rape ([3]; 62 g ai/ha) | Plant response rating (scale of 0 to 100), Lambsquarters [4, 20] | Plant response rating (scale of 0 to 100), Ryegrass, Italian [5, 20]
80: Plant response rating, Wheat ([15]; 62 g ai/ha) | Plant response rating, Waterhemp ([19]; 250 g ai/ha)
35: Plant response rating, Ragweed ([7]; 62 g ai/ha) | Plant response rating (scale of 0 to 100), Johnsongrass [13, 20]
60: Plant response rating (scale of 0 to 100), Barnyardgrass ([1]; 62 g ai/ha) | Plant response rating, Velvetleaf ([14]; 250 g ai/ha)
10: Plant response rating (scale of 0 to 100), Soybean [11, 20] | Plant response rating, Soybean ([11]; 62 g ai/ha) | Plant response rating (scale of 0 to 100), Galium [17, 20] | Plant response rating (scale of 0 to 100), Waterhemp [19, 20]
40: Plant response rating, Barnyardgrass ([1]; 31 g ai/ha, scale 0 to 100 (0 no effect, 100 complete control), 13 to 15 d) | Plant response rating, Velvetleaf ([14]; 125 g ai/ha)
70: Plant response rating, Ragweed ([7]; 125 g ai/ha) | Plant response rating (scale of 0 to 100), Blackgrass [9, 20] | Plant response rating, Blackgrass ([9]; 62 g ai/ha) | Plant response rating, Johnsongrass ([13]; 62 g ai/ha) | Plant response rating, Pigweed ([18]; 250 g ai/ha)
90: Plant response rating (scale of 0 to 100), Barnyardgrass ([1]; 250 g ai/ha) | Plant response rating, Oilseed Rape ([3]; 250 g ai/ha) | Plant response rating, Blackgrass ([9]; 125 g ai/ha) | Plant response rating, Wheat ([15]; 250 g ai/ha) | Plant response rating (scale of 0 to 100), Barnyardgrass [16, 20] | Plant response rating, Galium ([17]; 125 g ai/ha)
65: Plant response rating, Corn ([2]; 125 g ai/ha) | Plant response rating, Ryegrass, Italian ([5]; 125 g ai/ha) | Plant response rating, Waterhemp ([19]; 62 g ai/ha) | Plant response rating, Waterhemp ([19]; 125 g ai/ha)
95: Plant response rating (scale of 0 to 100), Crabgrass, Large [6, 20] | Plant response rating, Crabgrass, Large ([6]; 62 g ai/ha) | Plant response rating (scale of 0 to 100), Foxtail, Giant [8, 20] | Plant response rating, Foxtail, Giant ([8]; 62 g ai/ha) | Plant response rating, Blackgrass ([9]; 250 g ai/ha) | Plant response rating, Barnyardgrass ([16]; 62 g ai/ha)
55: Plant response rating, Ryegrass, Italian ([5]; 62 g ai/ha) | Plant response rating, Pigweed ([18]; 62 g ai/ha) | Plant response rating, Pigweed ([18]; 125 g ai/ha)
25: Plant response rating (scale of 0 to 100), Ragweed [7, 20]
30: Plant response rating (scale of 0 to 100), Corn [2, 20] | Plant response rating (scale of 0 to 100), Wheat [15, 20]
0: Plant response rating (scale of 0 to 100), Oilseed Rape [3, 20] | Plant response rating (scale of 0 to 100), Morningglory [10, 20] | Plant response rating, Morningglory ([10]; 62 g ai/ha) | Plant response rating, Morningglory ([10]; 125 g ai/ha) | Plant response rating, Morningglory ([10]; 250 g ai/ha) | Plant response rating, Soybean ([11]; 125 g ai/ha) | Plant response rating (scale of 0 to 100), Nutsedge, Yellow [12, 20] | Plant response rating, Nutsedge, Yellow ([12]; 62 g ai/ha) | Plant response rating, Nutsedge, Yellow ([12]; 125 g ai/ha) | Plant response rating (scale of 0 to 100), Pigweed [18, 20]
5: Plant response rating (scale of 0 to 100), Velvetleaf [14, 20]
75: Plant response rating (scale of 0 to 100), Barnyardgrass ([1]; 125 g ai/ha) | Plant response rating, Lambsquarters ([4]; 62 g ai/ha)
98: Plant response rating, Ryegrass, Italian ([5]; 250 g ai/ha) | Plant response rating, Crabgrass, Large ([6]; 125 g ai/ha) | Plant response rating, Foxtail, Giant ([8]; 125 g ai/ha) | Plant response rating, Foxtail, Giant ([8]; 250 g ai/ha) | Plant response rating, Barnyardgrass ([16]; 125 g ai/ha) | Plant response rating, Barnyardgrass ([16]; 250 g ai/ha) | Plant response rating, Galium ([17]; 250 g ai/ha)
85: Plant response rating, Corn ([2]; 250 g ai/ha) | Plant response rating, Oilseed Rape ([3]; 125 g ai/ha) | Plant response rating, Lambsquarters ([4]; 125 g ai/ha) | Plant response rating, Lambsquarters ([4]; 250 g ai/ha) | Plant response rating, Ragweed ([7]; 250 g ai/ha) | Plant response rating, Johnsongrass ([13]; 125 g ai/ha) | Plant response rating, Johnsongrass ([13]; 250 g ai/ha) | Plant response rating, Wheat ([15]; 125 g ai/ha) | Plant response rating, Galium ([17]; 62 g ai/ha)
15: Plant response rating, Nutsedge, Yellow ([12]; 250 g ai/ha) | Plant response rating, Velvetleaf ([14]; 62 g ai/ha)

Reference: patent publication US12077503B2, “Substituted cyclic amides and their use as herbicides” (FMC CORPORATION, priority 2015, dated 2024)
